Values of other authors, collected in article PMC9516332 (Frontiers in Oncology, 2022).
Where two headings read alike, the source gives them in different places.

Key:
[1] = biological target: T1, panel of 255 wild-type kinases (Homo sapiens, UniProt Q13237); settings: CGK2 kinase assay, 1 µmol/L single concentration, cited from earlier work
T1 sequence (Q13237 1-762): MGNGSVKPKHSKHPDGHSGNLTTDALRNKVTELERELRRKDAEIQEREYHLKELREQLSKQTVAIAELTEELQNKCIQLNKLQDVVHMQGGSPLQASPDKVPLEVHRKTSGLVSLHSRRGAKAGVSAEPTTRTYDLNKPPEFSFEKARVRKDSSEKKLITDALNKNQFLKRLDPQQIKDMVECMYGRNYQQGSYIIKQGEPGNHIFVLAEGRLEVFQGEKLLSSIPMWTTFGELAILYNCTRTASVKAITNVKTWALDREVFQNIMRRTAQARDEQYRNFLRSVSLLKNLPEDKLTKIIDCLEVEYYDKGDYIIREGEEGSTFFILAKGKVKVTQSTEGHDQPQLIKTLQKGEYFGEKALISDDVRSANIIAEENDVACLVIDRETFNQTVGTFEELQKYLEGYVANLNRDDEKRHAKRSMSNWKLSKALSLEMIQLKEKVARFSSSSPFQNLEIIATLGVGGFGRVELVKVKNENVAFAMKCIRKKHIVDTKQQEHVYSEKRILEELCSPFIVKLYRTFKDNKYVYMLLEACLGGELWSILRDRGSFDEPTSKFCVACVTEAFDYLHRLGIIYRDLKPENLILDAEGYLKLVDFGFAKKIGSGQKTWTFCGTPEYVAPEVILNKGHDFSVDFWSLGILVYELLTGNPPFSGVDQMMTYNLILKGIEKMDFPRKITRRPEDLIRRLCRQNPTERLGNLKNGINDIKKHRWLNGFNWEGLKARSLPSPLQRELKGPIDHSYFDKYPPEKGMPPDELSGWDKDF

[2] = biological target: T2, panel of 255 wild-type kinases (Homo sapiens, UniProt O43781); settings: kinase DYRK3, 1 µmol/L single concentration, cited from earlier work
T2 sequence (O43781 1-588): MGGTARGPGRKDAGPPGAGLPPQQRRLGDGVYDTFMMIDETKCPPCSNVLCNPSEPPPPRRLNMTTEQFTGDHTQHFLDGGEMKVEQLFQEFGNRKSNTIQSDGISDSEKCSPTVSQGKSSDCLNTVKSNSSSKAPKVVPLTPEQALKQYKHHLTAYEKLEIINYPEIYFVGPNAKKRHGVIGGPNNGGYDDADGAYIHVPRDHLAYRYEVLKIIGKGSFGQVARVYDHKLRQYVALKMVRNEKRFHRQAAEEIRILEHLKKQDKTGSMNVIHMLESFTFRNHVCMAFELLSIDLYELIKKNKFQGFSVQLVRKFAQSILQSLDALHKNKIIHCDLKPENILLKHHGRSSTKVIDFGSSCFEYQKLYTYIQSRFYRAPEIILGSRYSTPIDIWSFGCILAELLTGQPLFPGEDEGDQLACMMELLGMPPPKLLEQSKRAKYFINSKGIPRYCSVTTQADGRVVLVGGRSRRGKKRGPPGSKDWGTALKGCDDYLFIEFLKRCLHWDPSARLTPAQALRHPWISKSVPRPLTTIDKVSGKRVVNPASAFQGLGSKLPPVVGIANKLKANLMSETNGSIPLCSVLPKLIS

[3] = biological target: panel of 255 wild-type kinases (Homo sapiens, UniProt P07947); settings: kinase YES, 1 µmol/L single concentration, cited from earlier work
[4] = biological target: panel of 255 wild-type kinases (Homo sapiens, UniProt Q00535); settings: CDK5/p25 kinase assay, 1 µmol/L single concentration, cited from earlier work
[5] = biological target: T3, panel of 255 wild-type kinases (Homo sapiens, UniProt Q13976); settings: kinase PGK, 1 µmol/L single concentration, cited from earlier work
T3 sequence (Q13976 1-671): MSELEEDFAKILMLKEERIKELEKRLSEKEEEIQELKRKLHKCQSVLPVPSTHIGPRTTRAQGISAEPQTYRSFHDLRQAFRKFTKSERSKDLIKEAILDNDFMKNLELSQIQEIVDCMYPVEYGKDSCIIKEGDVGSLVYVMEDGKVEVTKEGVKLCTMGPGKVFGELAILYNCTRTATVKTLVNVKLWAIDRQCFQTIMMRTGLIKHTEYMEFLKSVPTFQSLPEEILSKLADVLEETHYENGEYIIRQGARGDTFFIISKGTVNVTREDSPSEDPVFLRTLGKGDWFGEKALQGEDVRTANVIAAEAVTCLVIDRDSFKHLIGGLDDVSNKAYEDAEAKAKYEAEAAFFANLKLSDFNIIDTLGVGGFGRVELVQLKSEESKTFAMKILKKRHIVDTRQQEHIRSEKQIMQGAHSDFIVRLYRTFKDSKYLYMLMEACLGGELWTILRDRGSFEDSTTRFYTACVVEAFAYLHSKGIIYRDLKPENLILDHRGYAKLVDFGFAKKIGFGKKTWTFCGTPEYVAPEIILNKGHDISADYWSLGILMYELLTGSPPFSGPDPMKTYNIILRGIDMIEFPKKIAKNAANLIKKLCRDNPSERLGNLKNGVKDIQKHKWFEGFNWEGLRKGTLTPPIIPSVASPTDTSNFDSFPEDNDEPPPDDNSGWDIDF

[6] = biological target: panel of 255 wild-type kinases (Homo sapiens, UniProt P53350); settings: kinase PLK1, 1 µmol/L single concentration, cited from earlier work
[7] = biological target: panel of 255 wild-type kinases (Homo sapiens, UniProt P41240); settings: kinase CSK, 1 µmol/L single concentration, cited from earlier work
[8] = biological target: panel of 255 wild-type kinases (Homo sapiens, UniProt P49137); settings: kinase MAPKAPK2, 1 µmol/L single concentration, cited from earlier work
[9] = biological target: panel of 255 wild-type kinases (Homo sapiens, UniProt O43683); settings: BUB1/BUB3 kinase assay; 1 µmol/L single concentration; ref DOI: 10.1158/1535-7163.MCT-18-0877; cited from earlier work
[10] = ref DOI: 10.1371/journal.pone.0092146
[11] = ref DOI: 10.1158/1535-7163.MCT-18-0877

For `CCCS(=O)(=O)Nc1ccc(F)c(C(=O)c2c[nH]c3ncc(-c4ccc(Cl)cc4)cc23)c1F` [vemurafenib], the “%-inhibition CGK2” value [1, 10] is listed as -2.26%, the “%-inhibition at 1 µmol/L, DYRK3” value [2, 10] is listed as 5% and the “%-inhibition at 1 µmol/L, YES” value [3, 10] is listed as 74%. For the same compound, the “%-inhibition CDK5/p25” value [4, 10] was 5%, the “%-inhibition at 1 µmol/L, PGK” value [5, 10] was -4.33% and the “%-inhibition at 1 µmol/L, PLK1” value [6, 10] was -4%. For the same compound, the “%-inhibition at 1 µmol/L, CSK” value [7, 10] was 76% and the “%-inhibition at 1 µmol/L, MAPKAPK2” value [8, 10] was -16%.

For `CC(=O)Nc1cccc(-n2c(=O)n(C3CC3)c(=O)c3c(Nc4ccc(I)cc4F)n(C)c(=O)c(C)c32)c1` [trametinib], the “%-inhibition CGK2” value [1, 10] is listed as -2.61%, the “%-inhibition at 1 µmol/L, DYRK3” value [2, 10] is listed as -10% and the “%-inhibition at 1 µmol/L, YES” value [3, 10] is listed as -1.63%. For the same compound, the “%-inhibition CDK5/p25” value [4, 10] was 19%, the “%-inhibition at 1 µmol/L, PGK” value [5, 10] was -1.31% and the “%-inhibition at 1 µmol/L, PLK1” value [6, 10] was -9%. The “%-inhibition at 1 µmol/L, CSK” value [7, 10] was -2.83% and the “%-inhibition at 1 µmol/L, MAPKAPK2” value [8, 10] was -0.335%.

In the case of `CCc1cc2c(cc1N1CCC(N3CCOCC3)CC1)C(C)(C)c1[nH]c3cc(C#N)ccc3c1C2=O` [alectinib], the “%-inhibition CGK2” value [1, 11] is given as 7.53%, the “%-inhibition BUB1/BUB3” value [9] is given as 2% and the “%-inhibition at 1 µmol/L, DYRK3” value [2, 11] is given as 8.44%. For the same compound, the “%-inhibition at 1 µmol/L, YES” value [3, 11] was 44%, the “%-inhibition CDK5/p25” value [4, 11] was -12% and the “%-inhibition at 1 µmol/L, PGK” value [5, 11] was -1.53%. For the same compound, the “%-inhibition at 1 µmol/L, PLK1” value [6, 11] was -1.76%, the “%-inhibition at 1 µmol/L, CSK” value [7, 11] was 6% and the “%-inhibition at 1 µmol/L, MAPKAPK2” value [8, 11] was -5.66%.

In the case of `CC(C)(C)c1nc(-c2cccc(NS(=O)(=O)c3c(F)cccc3F)c2F)c(-c2ccnc(N)n2)s1` [dabrafenib], the “%-inhibition CGK2” value [1, 10] is listed as -1.38%, the “%-inhibition at 1 µmol/L, DYRK3” value [2, 10] is listed as -5.68% and the “%-inhibition CDK5/p25” value [4, 10] is listed as 22%. The “%-inhibition at 1 µmol/L, PLK1” value [6, 10] was -9% and the “%-inhibition at 1 µmol/L, CSK” value [7, 10] was 98%.

For `CC#CC(=O)N1CCC[C@H]1c1nc(-c2ccc(C(=O)Nc3ccccn3)cc2)c2c(N)nccn12` [acalabrutinib], the “%-inhibition CGK2” value [1, 11] is listed as 1.55%, the “%-inhibition BUB1/BUB3” value [9] is listed as 5.51% and the “%-inhibition at 1 µmol/L, DYRK3” value [2, 11] is listed as 0.353%. The “%-inhibition at 1 µmol/L, YES” value [3, 11] was 22%, the “%-inhibition CDK5/p25” value [4, 11] was -19% and the “%-inhibition at 1 µmol/L, PGK” value [5, 11] was -3.7%. For the same compound, the “%-inhibition at 1 µmol/L, PLK1” value [6, 11] was -2.57%, the “%-inhibition at 1 µmol/L, CSK” value [7, 11] was 7% and the “%-inhibition at 1 µmol/L, MAPKAPK2” value [8, 11] was -21%.
